PMC9800739, “Epigenetic drugs in somatostatin type 2 receptor radionuclide theranostics and radiation transcriptomics in mouse pheochromocytoma models” (Theranostics, 2023)
Entries after “also recorded” stand apart in the source; their conditions may differ. Like-named read-outs stand apart in the source and are kept apart here.

Assays:
SSTR2 [1] = settings: cited from earlier work; for SSTR2 expression (effect): BON-1 cells, monotherapies and combined application; for SSTR2 gene expression (effect): QGP-1 cells
Text: HDAC and DNMT inhibitors can have different impacts depending on the cellular background. For example, in QGP-1 cells, DAC induced, but VPA inhibited SSTR2 gene expression.

SSTR2 [2] = biological target: T1, SSTR2 (Mus musculus, UniProt P30875); experiment: [68Ga]Ga-DOTA-TATE radioligand uptake in cells; format: cell-based; settings: MPC cells; 37 °C; VPA 10^-3 mol/L; DAC 5×10^-7 mol/L; attributed to cytotoxic effects
T1 construct: endogenous in cells; host or cells: MPC and MTT mouse pheochromocytoma cells (cell homogenates), untreated or treated with VPA + DAC
T1 sequence (P30875 whole entry): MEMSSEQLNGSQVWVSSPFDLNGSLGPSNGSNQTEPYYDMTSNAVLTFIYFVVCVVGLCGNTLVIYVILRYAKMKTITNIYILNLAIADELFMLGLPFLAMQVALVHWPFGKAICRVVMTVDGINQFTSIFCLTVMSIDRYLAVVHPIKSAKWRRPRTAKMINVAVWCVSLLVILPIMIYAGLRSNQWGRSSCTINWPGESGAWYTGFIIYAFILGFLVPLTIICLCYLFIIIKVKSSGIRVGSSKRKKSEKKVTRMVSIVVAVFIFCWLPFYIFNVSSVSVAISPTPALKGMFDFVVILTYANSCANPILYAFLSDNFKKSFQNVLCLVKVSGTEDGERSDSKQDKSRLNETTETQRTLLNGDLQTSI
Protocol: Cells were seeded into collagen-coated microplates or collagen-coated flasks 24 h before epigenetic treatment (ET) start and treated twice (24 h interval) with VPA and DAC, as single and combination doses, respectively. Treatment effects were investigated two to six days (d) after final ET. Preparation of epigenetic drugs is reported in Supplemental Information 1.1.
Radionuclide production and supply are described in Supplemental Information 1.2.
Cells were seeded into collagen-coated 24-well microplates (2.5×10^4/cm^2) and uptake of [^68Ga]Ga-DOTA-TATE was measured three and seven days after ET start. Cells were incubated with fresh cell culture medium containing 0.8 MBq/mL [^68Ga]Ga-DOTA-TATE (Am = 10 MBq/nmol), equivalent to 80 nmol/L, for 60 min at 4 °C or 37 °C. Cells were washed and lysed, and activity of cell lysates was measured as described previously. Total protein in cell lysates was measured using the Qubit protein assay (Thermo Fisher Scientific). Uptake of [^68Ga]Ga-DOTA-TATE was reported as % initial dose per mg of protein.

MPC and MTT cells = experiment: Viability assay (colorimetric tetrazolium dye); format: cell-based, mouse; settings: MPC and MTT cells (similar); three days after treatment start; two treatments at 24 h interval
Protocol: Viability of cells seeded into collagen-coated 96-well microplates (6×10^4/cm^2) was measured three days after treatment start using a colorimetric tetrazolium dye assay [39]. Doxorubicin served as positive control.

MPC tumors [3] = experiment: Tumor growth of MPC allografts; format: in vivo, mouse; settings: PET cohorts; for Vtumor, ET start: day 0 baseline, mean ± SEM; for Vtumor, ET start + 4 d: day 4, mean ± SEM
Protocol: During anesthesia, animals were continuously warmed at 37°C. […] Animals were sacrificed using CO2 inhalation and cervical dislocation. […]
70 1.1 Preparation of epigenetic drugs
71 For in vitro application, VPA was freshly dissolved in cell culture medium and added to the
72 cells at final concentrations between 10‒5 and 10‒2 mol/L. DAC was dissolved in H2O to obtain
73 a 10‒4 mol/L stock solution that was stored at ‒20 °C. For each experiment, aliquots of the DAC
74 stock were thawed and added to the cells at final concentrations between 10‒8 and 10‒5 mol/L.
75 For in vivo application, VPA was dissolved at 0.26 mol/L in Dulbecco’s phosphate-buffered
76 saline. DAC was dissolved at 0.04 mol/L in acetic acid (9.6 mol/L) to obtain a stock solution
77 that was further diluted to 6.6×10‒4 mol/L in Dulbecco’s phosphate buffered. […]
88 1.3 Tumor volumes in animal cohorts
89 Animals with higher initial tumor volume were specifically included in cohorts that received
90 epigenetic drugs in order to compensate for the growth-reducing effects of ET and to match
91 tumor volumes as closely as possible across cohorts at the time of radiopharmaceutical injection

MPC tumors [4] = format: in vivo, mouse; settings: MPC
Protocol: During anesthesia, animals were continuously warmed at 37°C. […] Animals were sacrificed using CO2 inhalation and cervical dislocation.
107 (30%), muscle (0%), kidneys (25%), and liver (35%).
116 attenuation. Images were post-processed and analyzed using ROVER (ABX). Three-
118 kidneys (15%), and liver (25%). […]

[5] = [64Cu]Cu-DOTA-TATE, 40‒60 min p.i., day 1 after final ET, control or VPA 250 mg/kg, DAC 1 mg/kg days −3 and 0, mean ± SEM

Structure (SMILES) | SSTR2 expression (effect) (SSTR2 [1]) | SSTR2 gene expression (effect) (SSTR2 [1]) | [68Ga]Ga-DOTA-TATE uptake (effect) (SSTR2 [2]) | LD50 (MPC and MTT cells) [mol/L] | Vtumor, ET start (MPC tumors [3]) [cm3] | Vtumor, ET start + 4 d (MPC tumors [3]) [cm3] | SUVmean tumor (MPC tumors [4]; [5]) | SUVmax ratio tumor / muscle (MPC tumors [4]; animal 1, 40‒60 min p.i.) | SUVmax tumor (MPC tumors [4]; animal 1, 40‒60 min p.i.) | SUVmean ratio tumor / muscle (MPC tumors [4]; animal 1, 40‒60 min p.i.) | SUVmean tumor (MPC tumors [4]; animal 1, 40‒60 min p.i.) | SUVmax ratio tumor / muscle (MPC tumors [4]; animal 2, 40‒60 min p.i.) | SUVmax tumor (MPC tumors [4]; animal 2, 40‒60 min p.i.) | SUVmean ratio tumor / muscle (MPC tumors [4]; animal 2, 40‒60 min p.i.) | SUVmean tumor (MPC tumors [4]; animal 2, 40‒60 min p.i.) | SUVmax ratio tumor / muscle (MPC tumors [4]; animal 3, 40‒60 min p.i.) | SUVmax tumor (MPC tumors [4]; animal 3, 40‒60 min p.i.) | SUVmean ratio tumor / muscle (MPC tumors [4]; animal 3, 40‒60 min p.i.) | SUVmean tumor (MPC tumors [4]; animal 3, 40‒60 min p.i.) | SUVmax ratio tumor / muscle (MPC tumors [4]; animal 4, 40‒60 min p.i.) | other results
Nc1ncn([C@H]2C[C@H](O)[C@@H](CO)O2)c(=O)n1 [DAC, 5-Aza-2'-deoxycytidine] | increased | induced | impairment of [68Ga]Ga-DOTA-TATE uptake; also recorded: reduced radiotracer uptake at 37 °C | 6.3e-07 | 0.39 ± 0.16 | 0.57 ± 0.18 | 7.38 ± 0.74 | 57.8 | 11.5 | 68.2 | 5.09 | 65.6 | 13.9 | 96.7 | 6.74 | 58.7 | 15.3 | 93.2 | 7.52 | 69.1 | SUVmax tumor (MPC tumors [4]; animal 4, 40‒60 min p.i.): 15.2; SUVmean ratio tumor / muscle (MPC tumors [4]; animal 4, 40‒60 min p.i.): 80.6; SUVmean tumor (MPC tumors [4]; animal 4, 40‒60 min p.i.): 7.99; SUVmax ratio tumor / muscle (MPC tumors [4]; animal 5, 40‒60 min p.i.): 67.9; SUVmax tumor (MPC tumors [4]; animal 5, 40‒60 min p.i.): 20.6; SUVmean ratio tumor / muscle (MPC tumors [4]; animal 5, 40‒60 min p.i.): 104; SUVmean tumor (MPC tumors [4]; animal 5, 40‒60 min p.i.): 9.57; SUVmax ratio tumor / muscle (MPC tumors [4]; as SUVmean, mean ± SEM): 63.8 ± 2.35; SUVmax tumor (MPC tumors [4]; as SUVmean, mean ± SEM): 15.3 ± 1.49; SUVmean ratio tumor / muscle (MPC tumors [4]; as SUVmean, mean ± SEM): 88.6 ± 6.39
CCCC(CCC)C(=O)O [VPA, valproic acid] | increased | inhibited | impairment of [68Ga]Ga-DOTA-TATE uptake; also recorded: reduced radiotracer uptake at 37 °C | 0.0013 | 0.27 ± 0.13 | 0.46 ± 0.23 | 6.91 ± 1.19 | 33.0 | 8.80 | 60.0 | 4.22 | 60.8 | 10.8 | 67.2 | 5.61 | 78.3 | 19.7 | 91.2 | 8.55 | 65.2 | stimulating effects on SSTR2 expression and [111In]In-DOTA-TATE uptake, reversibility (SSTR2 [1]; one day after VPA withdrawal): largely reversible one day after VPA withdrawal; SUVmax tumor (MPC tumors [4]; animal 4, 40‒60 min p.i.): 18.5; SUVmean ratio tumor / muscle (MPC tumors [4]; animal 4, 40‒60 min p.i.): 100; SUVmean tumor (MPC tumors [4]; animal 4, 40‒60 min p.i.): 9.24; SUVmax ratio tumor / muscle (MPC tumors [4]; as SUVmean, mean ± SEM): 59.3 ± 9.54; SUVmax tumor (MPC tumors [4]; as SUVmean, mean ± SEM): 14.5 ± 2.73; SUVmean ratio tumor / muscle (MPC tumors [4]; as SUVmean, mean ± SEM): 79.6 ± 9.53
